Tests used:
[1] = tested on: Black nightshade; test: Ex15 PRE 2,4-DC + S-metolachlor, % control 28 DAT, Colby; format: in vivo, Solanum nigrum
Source text: The weeds tested in this study were redroot pigweed (Amaranthus retroflexus, AMARE), Jimsonweed (Datura stramonium, DATST), black nightshade (Solanum nigrum, SOLNI), large crabgrass (Digitaria sanguinalis, DIGSA), Pennsylvania smartweed (Polygonum pensylvanicum, POLPY), horseweed (Conyza canadensis, ERICA), wild buckwheat (Polygonum convolvulus, POLCO). The crop tested was Corn (var. Viking).
To determine PRE efficacy and corn injury, five rates of each 2,4 DC (36.7% CS) and S-metolachlor (Dual II Magnum®, 82.4%) were applied either alone or as tank-mix. 2,4 DC was applied at 0, 125, 170, 210, or 250 g ai/ha and S-metolachlor was applied at 0, 267, 534, 801, or 1070 g ai/ha. Additional treatments included application of premix of pyroxasulfone plus fluthiacet-methyl (Anthem™ 23.3%) at 169.9 g ai/ha and tank-mix of mesotrione (Callisto®, 40%) at 123 g plus S-metolachlor at 1252 g. Treatments were applied just after the planting of large crabgrass, Jimsonweed, black nightshade, redroot pigweed, Pennsylvania smartweed, horseweed, wild buckwheat, and corn.
Flats were watered and fertilized routinely after treatment application. Each treatment was replicated three times. […] Corn injury was rated for bleaching and stunting.

[2] = tested on: Wild buckwheat; test: Ex11 PRE 2,4-DC + clomazone, % control 28 DAT, Colby; format: in vivo, Polygonum convolvulus
Source text: The crop tested was Oilseed rape.
Additional treatments included applications of metazachlor (Butisan®, 43.1%) at 750 g ai/ha, napropamide (Devrinol DF®, 50%) at 1260 g, and dimethachlor (Teridox®, 48%) at 1000 g. […] Treatments were applied just after the planting of tall morningglory, wild mustard, common lambsquarters, Italian ryegrass, wild buckwheat, redroot pigweed, common chickweed, corn poppy, and oilseed rape.
Flats were watered and fertilized routinely after treatment application. Each treatment was replicated three times.

[3] = tested on: wheat; test: Ex40 POST 2,4-DC + metsulfuron-methyl, crop injury 7 DAT; format: in vivo
Method: (§1) Treatments were applied to barley and wheat crops.
(§2) Non-ionic surfactant (NIS) was added to all treatments at 0.5% v/v. All plant species were direct seeded into 3″ plastic pots using metro-mix as growth media. At treatment common lambsquarters was 1.75″, common chickweed was 2″, wild mustard was 2.25″, wild oat was 5.5″, wild buckwheat was 2-5″, Italian ryegrass was 2-3″, wheat was 5.5″ and barley was 4.5″ in height. Plants were watered well before application and not watered 24 h after application. Plants were watered and fertilized routinely after treatment application. Each treatment was replicated four times. Treated flats were placed in randomized block design in the greenhouse.

[4] = tested on: Barley; test: as above; format: in vivo
Method: as §1, §2

[5] = tested on: weeds; test: Ex13 PRE greenhouse; format: in vivo; conditions: 28 DAT, weed and rate in the words
Source text: (§3) Pyroxasulfone (KIH-485, 85%) at 74.3 g ai/ha, pendimethalin (Prowl 3.3EC, 37.4%) at 1200 g ai/ha, or a premix of chlorsulfuron plus metsulfuron-methyl (Report Extra, 75%) at 15.8 g ai/ha were applied as commercial standards. […] Treatments were replicated 3 times and flats were watered after planting before the treatment and lightly watered after treatment application. Thereafter flats were watered and fertilized routinely.

[6] = tested on: weeds; Wheat and Barley; test: Ex14 POST greenhouse; format: in vivo; conditions: 28 DAT, rate in the words
Source text: The study further assessed post crop safety on Wheat and Barley.
Nonionic surfactant at 0.5% (v/v) was included with commercial standards application. No adjuvant was applied with any other treatments. All plant species were direct seeded into 3″ plastic pots using metro-mix as growth media. At treatment application common lambsquarters was 1.75″, common chickweed was 2″, wild mustard was 2.25″, wild oat was 5.5″, wild buckwheat was 2-5″, Italian ryegrass was 2-3″, wheat was 5.5″, and barley was 4.5″ in height. Plants were watered well before application and not watered 24 h after application. Plants were watered and fertilized routinely after treatment application. Each treatment was replicated four times.

[7] = tested on: Blackgrass; test: Ex13 PRE 2,4-DC + diflufenican, % control 28 DAT, Colby; format: in vivo, Alopecurus myosuroides
Source text: as §3

[8] = tested on: weeds; canola, and wheat; test: Ex32 PRE greenhouse; format: in vivo; conditions: rate in the words
Source text: (§4) Treatments were applied at the time of planting to Italian ryegrass, green foxtail, littleseed canarygrass, wild oat, quackgrass, dandelion, common chickweed, white clover, yellow nutsedge, redroot pigweed, field bindweed, canola, and wheat. […] Flats were watered and fertilized routinely after treatment application.

[9] = tested on: weeds; canola, and wheat; test: Ex30 PRE greenhouse; format: in vivo
Source text: Treatments were applied before the emergence of Italian ryegrass, wild oat, blackgrass, littleseed canarygrass, common chickweed, common lambsquarters, corn poppy, silky windgrass, redroot pigweed, wild mustard, annual bluegrass, canola, and wheat. […] Flats were watered and fertilized routinely after treatment application.

[10] = tested on: Wild buckwheat; test: Ex12 PRE 2,4-DC + dimethenamid-P, % control 28 DAT, Colby; format: in vivo, Polygonum convolvulus
Method: The tested weeds include: wild buckwheat (Polygonum convolvulus, POLCO), velvetleaf (Abutilon theophrasti, ABUTH), cheat (Bromus secalinus, BROSE), wild oat (Avena fatua, AVEFA), radish (Raphanus sativus, RAPSN), corn poppy (Papaver rhoeas, PAPRH), yellow foxtail (Setaria pumila, SETLU), Italian ryegrass (Lolium perenne ssp. multiflorum, LOLMU). The tested crop was Oilseed rape.
This greenhouse study was conducted to assess the preemergence (PRE) weed control and oilseed rape tolerance with 2,4 DC (CS 36.7%) and dimethenamid-P (Outlook®, 63.9%) tank-mix combinations.
Metazachlor (Butisan, 43.1%) plus dimethenamid-P applied as tank mix at 500 g each was applied as commercial standard. Treatments were replicated 3 times and flats were watered after planting but before the treatment and then lightly watered after treatment application. Thereafter flats were watered and fertilized routinely.

[11] = tested on: Yellow nutsedge; test: Ex32 PRE 2,4-DC + pyroxasulfone + sulfentrazone, % control 28 DAT, Colby; format: in vivo, Cyperus esculentus
Source text: as §4

`CC1(C)CON(Cc2ccc(Cl)cc2Cl)C1=O` [2,4-DC, 2-(2,4-dichlorophenyl)methyl-4,4-dimethyl-3-isoxazolidinone] gave an X ([1]; 2,4-DC alone 125 g ai/ha) of 32%, an X ([1]; 2,4-DC alone 170 g ai/ha) of 33% and an X ([1]; 2,4-DC alone 210 g ai/ha) of 47%. It also gave an X ([1]; 2,4-DC alone 250 g ai/ha) of 50%, an X ([2]; 2,4-DC alone 125 g ai/ha) of 10% and an X ([2]; 2,4-DC alone 170 g ai/ha) of 30%. For the same compound, the X ([2]; 2,4-DC alone 210 g ai/ha) was 22%, the X ([2]; 2,4-DC alone 250 g ai/ha) was 27% and the “X (% crop injury, 2,4-DC alone)” value ([3]; POST, 2,4-DC 125 g ai/ha) was 5%. For the same compound, the “X (% crop injury, 2,4-DC alone)” value ([3]; POST, 2,4-DC 170 g ai/ha) was 14%, the “X (% crop injury, 2,4-DC alone)” value ([3]; POST, 2,4-DC 210 g ai/ha) was 17% and the “X (% crop injury, 2,4-DC alone)” value ([3]; POST, 2,4-DC 250 g ai/ha) was 31%. The “X (% crop injury, 2,4-DC alone)” value ([4]; POST, 2,4-DC 125 g ai/ha) was 4%, the “X (% crop injury, 2,4-DC alone)” value ([4]; POST, 2,4-DC 170 g ai/ha) was 6% and the “X (% crop injury, 2,4-DC alone)” value ([4]; POST, 2,4-DC 210 g ai/ha) was 8%. The “X (% crop injury, 2,4-DC alone)” value ([4]; POST, 2,4-DC 250 g ai/ha) was 14%, the “weed control in words” value [5] was “alone at all rates did not control most of the species” and the “weed control / crop safety in words” value [6] was “applied alone did not control any weed in the assay, and was safe at all rates on both wheat and barley”. For the same compound, the X ([7]; 2,4-DC alone 125 g ai/ha) was 23%, the X ([7]; 2,4-DC alone 170 g ai/ha) was 53% and the X ([7]; 2,4-DC alone 210 g ai/ha) was 66%. The X ([7]; 2,4-DC alone 250 g ai/ha) was 68%, the “weed control / crop safety in words” value [8] was “alone controlled Italian ryegrass and wild oat at 400 g; common chickweed was controlled at all rates; green foxtail was controlled at ≥100 g; littleseed canarygrass and redroot pigweed were controlled at 200 g” and the injury to canola ([9]; at 100 g) was 11%. The injury to wheat ([9]; at 200 g) was 11%, the “weed control in words” value ([9]; weed and rate in the words) was “alone gave control of pigweed, corn poppy, and Italian ryegrass at ≥200 g ai/ha, wild oat at 400 g, blackgrass at ≥100 g, and common chickweed at all rates” and the X ([10]; 2,4-DC alone 125 g ai/ha) was 8%. For the same compound, the X ([10]; 2,4-DC alone 170 g ai/ha) was 25%, the X ([10]; 2,4-DC alone 210 g ai/ha) was 28% and the X ([10]; 2,4-DC alone 250 g ai/ha) was 38%. It also gave an X ([11]; 2,4-DC alone 50 g ai/ha) of 0%, an X ([11]; 2,4-DC alone 100 g ai/ha) of 0% and an X ([11]; 2,4-DC alone 200 g ai/ha) of 17%.
